pIC50: −log10 of the molar value.

In assay [1] the test system is THP-1. The experiment in a line: Increase in hemolysin-induced pore formation in human THP1 cells at 10 uM relative to control. Format: functional.
Assay [2] has as its system THP-1. The experiment in a line: Cytotoxicity against human THP1 cells at 30 uM. The assay is classed as functional.
Assay [3] deals with THP-1. The experiment in a line: Cytotoxicity against human THP1 cells at 100 uM. The assay is classed as functional.
In assay [4] the target is T1, P2X purinoceptor 7 (Homo sapiens) (UniProt Q99572).
T1 sequence (whole entry): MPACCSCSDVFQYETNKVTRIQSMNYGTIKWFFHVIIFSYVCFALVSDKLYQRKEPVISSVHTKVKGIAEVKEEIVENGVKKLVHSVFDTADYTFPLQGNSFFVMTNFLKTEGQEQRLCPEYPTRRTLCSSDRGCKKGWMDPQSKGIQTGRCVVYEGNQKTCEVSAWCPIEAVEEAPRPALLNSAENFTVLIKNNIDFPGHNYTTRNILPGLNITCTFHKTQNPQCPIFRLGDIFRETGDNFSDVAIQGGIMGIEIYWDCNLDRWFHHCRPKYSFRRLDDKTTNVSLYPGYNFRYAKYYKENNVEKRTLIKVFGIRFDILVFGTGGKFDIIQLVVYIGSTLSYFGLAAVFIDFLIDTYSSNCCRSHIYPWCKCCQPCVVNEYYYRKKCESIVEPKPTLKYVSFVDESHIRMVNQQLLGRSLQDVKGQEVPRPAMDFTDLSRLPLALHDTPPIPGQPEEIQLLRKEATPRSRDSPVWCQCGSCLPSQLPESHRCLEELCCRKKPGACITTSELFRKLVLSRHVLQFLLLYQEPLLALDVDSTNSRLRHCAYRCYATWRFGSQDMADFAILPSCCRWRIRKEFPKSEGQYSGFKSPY
The experiment in a line: Antagonist activity at P2X7 receptor expressed in human THP1 cells assessed as reduction of benzoylbenzoyl adenosine triphosphate-induced pore formation at 10 uM relative to control. Format: functional, cell-based. More on the design: scale not given: the % may be the effect or the level left. Conditions: THP-1.

Assay [5] deals with THP-1. The experiment in a line: Increase in hemolysin-induced pore formation in human THP1 cells at 100 uM relative to control. The assay is classed as functional.
Assay [6] has as its system THP-1. The experiment in a line: Cytotoxicity against human THP1 cells after 21 hrs. Format: functional, cell-based. The settings on record: THP-1, 21 h.

Regarding `C(=C/CCCC[n+]1cccc(C/C=C\CCCCCCc2cccnc2)c1)/CCCCCCc1cccnc1` [NIPHATOXIN C], the Activity was determined as 101% in the assay on THP-1 [1]; 0% in the assay on THP-1 [2]; 99% with THP-1 [3]; 41% in assay [4]; 185% with THP-1 [5]. In addition, the negative-log IC50 (pIC50) (usually the IC50 on a negative log10 scale, so that one unit is a factor of ten) in the assay on THP-1 [6] was 4.94.

(Values after ChEMBL document CHEMBL1141361, “Niphatoxin C, a cytotoxic tripyridine alkaloid from Callyspongia sp” (J Nat Prod, 2007).)
